Results published in patent US12521375B2, “Pharmaceutical composition for treating fatty liver disease” (Shionogi & Co., Ltd., priority 2020, dated 2026).
Where “and” joins values, the source holds several entries; their conditions need not be identical. Identical values can stand only once.

Experiments:
[1] = Metabolic stability test (rat); type: in vitro ADME
Procedure: [Worded in the source for another species; this species is reported under the same test.] Commercially available pooled human liver microsomes were reacted with the compound of the present invention for a given time. A residual rate was calculated by comparison between the reacted sample and the unreacted sample to evaluate a degree at which the compound of the present invention is metabolized in the liver.
The compound was reacted at 37° C. for 0 minutes or 30 minutes in the presence of 1 mmol/L NADPH in 0.2 mL of a buffer (50 mmol/L Tris-HCl pH 7.4, 150 mmol/L potassium chloride, and 10 mmol/L magnesium chloride) containing 0.5 mg protein/mL of the human liver microsomes (oxidative reaction). After the reaction, 50 μL of the reaction solution was added to 100 μL of a solution of methanol/acetonitrile=1/1 (v/v) and mixed, and the mixture was centrifuged at 3000 rpm for 15 minutes. The compound of the present invention in the centrifuged supernatant was quantified by LC/MS/MS or solid-phase extraction (SPE)/MS. The amount of the compound of the present invention remained after the reaction was calculated with the amount of the compound at 0 minutes of the reaction defined as 100%.

[2] = test system: Malonyl-CoA concentration in organ; experiment: Test for evaluating malonyl-CoA concentration in liver and muscles; type: in vivo, BKS.Cg-+Lepr^db/+Lepr^db/Jcl mice; conditions: for Malonyl-CoA concentration in organ with vehicle administration group defined as 100%, Liver / Malonyl-CoA concentration in organ with vehicle administration group defined as 100%, Muscle: 2 hours after administration; for malonyl-CoA concentrations in the liver and muscles (in words): 0.3 to 6 mg/kg oral
Procedure: Eight-week-old male BKS.Cg-+Lepr^db/+Lepr^db/Jcl mice were fasted for 4 hours, then the compound of the present invention was orally administered at a dose of 0.3 to 6 mg/5 mL/kg, and 2 hours after administration, the mice were killed by exsanguination through whole blood collection from the abdominal vena cava under anesthesia. Then, the liver and muscles were removed, and a 9% homogenate was prepared in a homogenizing buffer (distilled water: 60% perchloric acid: 85% phosphoric acid=43:5:2). The malonyl-CoA concentration in the tissue was quantified by LC/MS/MS.

[3] = test system: high-fat diet-loaded mice with spontaneous fatty liver; experiment: Effect on liver fibrosis progression in high-fat diet-loaded mice with spontaneous fatty liver; type: in vivo, FLS.B6-Lep<ob>/Shi mice; design: 3-hydroxybutyric acid in plasma: unit not given here; conditions: for Amount of triglyceride in liver / Sirius red-positive area rate / 3-hydroxybutyric acid in plasma / Plasma triglyceride concentration / Change in hemoglobin A1c (day 26 of administration) − (before start of administration) / Hemoglobin A1c, Before start of administration / Hemoglobin A1c, Day 26 of administration: bid; for Amount of triglyceride in liver / Sirius red-positive area rate: oral, 4 weeks; for Change in hemoglobin A1c (day 26 of administration) − (before start of administration) / Hemoglobin A1c, Before start of administration / Hemoglobin A1c, Day 26 of administration: individual animals
Procedure: Eight-week-old male FLS.B6-Lep/Shi mice were fed a high-fat diet (60 kcal % fat content, using shortening, containing 2% cholesterol and 8.7% fructose), and at the same time, the compound of the present invention was suspended in a 0.5% MC aqueous solution so as to have a dose of 5.5 to 60 mg/kg/5 mL, and orally repeatedly administered (b.i.d.) for 4 weeks. Blood was collected from the tail vein during the repeated administration period, and biochemical parameters in plasma were measured. After 4 weeks of administration, blood was collected from the abdominal vena cava under anesthesia, and then the liver was collected. Paraffin-embedded sections prepared from the collected liver were subjected to Sirius red staining. A degree of fibrosis progression in the liver was determined from a Sirius red-positive area rate and evaluated.

recombinant human ACC1 = recombinant human ACC1 (Homo sapiens (Human), UniProt Q13085); experiment: Measurement of inhibitory activity of human ACC1; type: biochemical; conditions: read-out: IC50 hACC1
Excerpt: A cDNA encoding human ACC1 protein (1 amino acid residue to 2346 amino acid residues from the N-terminus) was cloned from a human liver cDNA library (BioChain Institute Inc.), myc tag and His-tag sequences were introduced at the 3′ end, and then inserted into pIEXBAC3 (Novagen). A recombinant baculovirus was produced in accordance with the protocol for FlashBACGOLD (Oxford Expression Technologies Ltd.), and Sf-9 cells were infected therewith to express human ACC1 protein. The recovered cells were crushed, filtered through a filter, and then subjected to Ni affinity chromatography and anion exchange chromatography. Fractions containing human ACC1 protein were collected to obtain recombinant human ACC1.
The recombinant human ACC1 and the recombinant human ACC2 obtained from the above Preparation Examples were preincubated in an assay buffer (50 mM HEPES-KOH (pH 7.4), 10 mM magnesium chloride, 6 to 10 mM potassium citrate, 4 mM reduced glutathione, and 1.5 mg/ml bovine serum albumin) for 1 hour. Then, 5 μL of the pre-incubated enzyme solution and 5 μL of a substrate solution (50 mM HEPES-KOH (pH 7.4), 1 mM ATP, 0.8 mM acetyl-CoA, and 25 to 50 mM potassium bicarbonate) were added to a 384-well microplate into which 0.2 μL of each of solutions of the compound of the present invention (DMSO) had been dispensed, and the mixture was centrifuged and shaken, and then incubated in a wet box at room temperature for 1 to 3 hours. After incubation, the enzymatic reaction was stopped by addition of EDTA, and then the compound was co-crystallized with an α-cyano-4-hydroxy cinnamic acid (CHCA) matrix on a MALDI target plate, and measurement was performed in a reflector negative mode using a matrix-assisted laser desorption ionization-time-of-flight mass spectrometer (MALDI-TOF MS). Deprotonated ions of the substrate acetyl-CoA (AcCoA) and the reaction product malonyl-CoA (MalCoA) were detected, and the intensity of each signal was used to calculate a conversion rate to malonyl-CoA […], i.e., intensity of [MalCoA-H]-/(intensity of [MalCoA-H]-+intensity of [AcCoA-H]-). […] The potassium citrate concentration in the assay buffer, the potassium bicarbonate concentration in the substrate solution, and the incubation time were adjusted within the above concentrations or reaction times for each lot of the enzyme to be used.

## C[C@@H](CO[C@H]1CC[C@H](Oc2nc3c(F)cc(OC4CC4)cc3n2C)CC1)NC(N)=O [Compound I-12]
[1]
  Amount of compound remained, Rat: 85.5%
[2]; 0.67 mg/kg oral
  Malonyl-CoA concentration in organ with vehicle administration group defined as 100%, Liver: 92.8%
  Malonyl-CoA concentration in organ with vehicle administration group defined as 100%, Muscle: 70.8%
[2]; 2 mg/kg oral
  Malonyl-CoA concentration in organ with vehicle administration group defined as 100%, Liver: 91.1%
  Malonyl-CoA concentration in organ with vehicle administration group defined as 100%, Muscle: 59.5%
[2]; 6 mg/kg oral
  Malonyl-CoA concentration in organ with vehicle administration group defined as 100%, Liver: 84.0%
  Malonyl-CoA concentration in organ with vehicle administration group defined as 100%, Muscle: 56.4%
[2]
  malonyl-CoA concentrations in the liver and muscles (in words): reduced malonyl-CoA concentrations in the liver and muscles in a compound dose-dependent manner
[3]; 5.5 mg/kg
  Amount of triglyceride in liver: 451 ± 17 mg/g tissue
  Sirius red-positive area rate: 1.26 ± 0.13 %
[3]; 5.5 mg/kg, Week 0
  3-hydroxybutyric acid in plasma: 184 ± 20
  Plasma triglyceride concentration: 790 ± 95 mg/dL
[3]; 5.5 mg/kg, Week 1
  3-hydroxybutyric acid in plasma: 470 ± 93
  Plasma triglyceride concentration: 369 ± 32 mg/dL
[3]; 5.5 mg/kg, Week 2
  3-hydroxybutyric acid in plasma: 1108 ± 120
  Plasma triglyceride concentration: 464 ± 30 mg/dL
[3]; 5.5 mg/kg, Week 4
  3-hydroxybutyric acid in plasma: 1354 ± 170
  Plasma triglyceride concentration: 513 ± 23 mg/dL
[3]; 11 mg/kg
  Amount of triglyceride in liver: 441 ± 11 mg/g tissue
  Sirius red-positive area rate: 1.52 ± 0.18%
[3]; 11 mg/kg, Week 0
  3-hydroxybutyric acid in plasma: 178 ± 8.7
  Plasma triglyceride concentration: 619 ± 76 mg/dL
[3]; 11 mg/kg, Week 1
  3-hydroxybutyric acid in plasma: 449 ± 140
  Plasma triglyceride concentration: 382 ± 44 mg/dL
[3]; 11 mg/kg, Week 2
  3-hydroxybutyric acid in plasma: 1314 ± 370
  Plasma triglyceride concentration: 497 ± 39 mg/dL
[3]; 11 mg/kg, Week 4
  3-hydroxybutyric acid in plasma: 1508 ± 380
  Plasma triglyceride concentration: 500 ± 27 mg/dL
[3]; dose of 5.5 mg/kg
  Sirius red-positive area rate vs vehicle administration group (in words): significantly lower than that of the vehicle administration group
[3]; mouse, in vivo
  amount of triglyceride in the liver vs vehicle administration group (in words): not significantly different from that in the vehicle administration group
  concentration of 3-hydroxybutyric acid in plasma vs vehicle administration group (in words): tended to be higher than that in the vehicle administration group
  plasma triglyceride concentration vs vehicle administration group (in words): not significantly different from that in the vehicle administration group
Recombinant human ACC1
  IC50: 6.9 µM

## CC(=O)N[C@@H](C)CC[C@H]1OC[C@H](Oc2nc3c(F)cc(OC4CC4)cc3n2C)CO1 [Compound I-13]
[1]
  Amount of compound remained, Rat: 87%
[2]; 0.3 mg/kg oral
  Malonyl-CoA concentration in organ with vehicle administration group defined as 100%, Liver: 90.9%
  Malonyl-CoA concentration in organ with vehicle administration group defined as 100%, Muscle: 72.8%
[2]; 1 mg/kg oral
  Malonyl-CoA concentration in organ with vehicle administration group defined as 100%, Liver: 86.5%
  Malonyl-CoA concentration in organ with vehicle administration group defined as 100%, Muscle: 64.9%
[2]; 3 mg/kg oral
  Malonyl-CoA concentration in organ with vehicle administration group defined as 100%, Liver: 79.9%
  Malonyl-CoA concentration in organ with vehicle administration group defined as 100%, Muscle: 58.4%
[2]
  malonyl-CoA concentrations in the liver and muscles (in words): reduced malonyl-CoA concentrations in the liver and muscles in a compound dose-dependent manner
[3]; 30 mg/kg
  Amount of triglyceride in liver: 234 ± 21 mg/g tissue
  Sirius red-positive area rate: 3.05 ± 0.28 %
  Change in hemoglobin A1c (day 26 of administration) − (before start of administration): 1.10% and 2.61% and 0.359% and 0.580% and 0.200% and 1.37% and 0.484% and 1.14% and 1.05%
  Hemoglobin A1c, Before start of administration: 6.40% and 6.59% and 6.70% and 6.32% and 7.03% and 7.49% and 7.05% and 6.78% and 6.28%
  Hemoglobin A1c, Day 26 of administration: 7.50% and 9.21% and 7.05% and 6.90% and 7.23% and 8.86% and 7.54% and 7.91% and 7.32%
[3]; 30 mg/kg, Week 0
  3-hydroxybutyric acid in plasma: 252 ± 73
  Plasma triglyceride concentration: 680 ± 81 mg/dL
[3]; 30 mg/kg, Week 1
  3-hydroxybutyric acid in plasma: 397 ± 140
  Plasma triglyceride concentration: 299 ± 27 mg/dL
[3]; 30 mg/kg, Week 4
  3-hydroxybutyric acid in plasma: 1888 ± 570
  Plasma triglyceride concentration: 600 ± 59 mg/dL
[3]; 45 mg/kg
  Amount of triglyceride in liver: 211 ± 19 mg/g tissue
  Sirius red-positive area rate: 2.65 ± 0.34 %
  Change in hemoglobin A1c (day 26 of administration) − (before start of administration): 0.591% and 0.429% and −0.888% and −0.504% and 2.17% and 0.162% and 0.562% and 1.50% and 0.667%
  Hemoglobin A1c, Before start of administration: 6.58% and 6.74% and 7.06% and 5.77% and 5.87% and 7.03% and 6.43% and 6.83% and 7.47%
  Hemoglobin A1c, Day 26 of administration: 7.17% (2×) and 6.17% and 5.26% and 8.04% and 7.19% and 6.99% and 8.33% and 8.13%
[3]; 45 mg/kg, Week 0
  3-hydroxybutyric acid in plasma: 291 ± 130
  Plasma triglyceride concentration: 644 ± 89 mg/dL
[3]; 45 mg/kg, Week 1
  3-hydroxybutyric acid in plasma: 829 ± 490
  Plasma triglyceride concentration: 279 ± 40 mg/dL
[3]; 45 mg/kg, Week 4
  3-hydroxybutyric acid in plasma: 1803 ± 640
  Plasma triglyceride concentration: 572 ± 54 mg/dL
[3]; 60 mg/kg
  Amount of triglyceride in liver: 235 ± 20 mg/g tissue
  Sirius red-positive area rate: 2.75 ± 0.36 %
  Change in hemoglobin A1c (day 26 of administration) − (before start of administration): 0.493% and 0.0708% and 0.696% and 0.463% and 0.150% and −0.0552% and 0.719% and −0.0504%
  Hemoglobin A1c, Before start of administration: 5.50% and 6.36% and 6.46% and 6.60% and 7.12% and 6.80% and 6.55% and 5.83%
  Hemoglobin A1c, Day 26 of administration: 5.99% and 6.43% and 7.16% and 7.06% and 7.27% (2×) and 6.74% and 5.78%
[3]; 60 mg/kg, Week 0
  3-hydroxybutyric acid in plasma: 217 ± 28
  Plasma triglyceride concentration: 829 ± 97 mg/dL
[3]; 60 mg/kg, Week 1
  3-hydroxybutyric acid in plasma: 351 ± 72
  Plasma triglyceride concentration: 322 ± 30 mg/dL
[3]; 60 mg/kg, Week 4
  3-hydroxybutyric acid in plasma: 1260 ± 170
  Plasma triglyceride concentration: 641 ± 86 mg/dL
[3]; dose of 30, 45, or 60 mg/kg
  Sirius red-positive area rate vs vehicle administration group (in words): significantly lower than that of the vehicle administration group
[3]; mouse, in vivo
  amount of triglyceride in the liver vs vehicle administration group (in words): not significantly different from that in the vehicle administration group
  concentration of 3-hydroxybutyric acid in plasma vs vehicle administration group (in words): tended to be higher than that in the vehicle administration group
  hemoglobin A1c (in words): tended to suppress an increase in hemoglobin A1c
  plasma triglyceride concentration vs vehicle administration group (in words): not significantly different from that in the vehicle administration group
Recombinant human ACC1
  IC50: 0.91 µM
